The target of the assay is T1, CETP (Homo sapiens, UniProt P11597).
T1 construct: from tissue; host or cells: human plasma from normal volunteers
T1 sequence (P11597 18-493): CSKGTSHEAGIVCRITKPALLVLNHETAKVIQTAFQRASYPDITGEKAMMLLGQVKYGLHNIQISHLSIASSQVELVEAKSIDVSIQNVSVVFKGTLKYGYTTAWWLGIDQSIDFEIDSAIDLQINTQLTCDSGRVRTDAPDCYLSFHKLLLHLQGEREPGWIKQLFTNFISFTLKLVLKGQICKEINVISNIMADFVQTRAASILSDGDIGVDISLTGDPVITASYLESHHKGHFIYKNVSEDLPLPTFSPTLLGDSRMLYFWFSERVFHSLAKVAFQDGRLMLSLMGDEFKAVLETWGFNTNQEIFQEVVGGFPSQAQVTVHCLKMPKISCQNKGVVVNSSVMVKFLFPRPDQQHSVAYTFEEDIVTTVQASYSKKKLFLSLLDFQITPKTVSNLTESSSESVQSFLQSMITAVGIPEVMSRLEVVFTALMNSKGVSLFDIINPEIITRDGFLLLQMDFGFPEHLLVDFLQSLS
Briefly: CETP in vitro assay ([3H]CE-HDL transfer, Amersham kit TRKQ7005; modified protocol in human plasma). The assay is classed as biochemical. As to conditions: multiple values = multiple measurements; for % Inhibition @ 1 μM / inhibition at 1 µM: 1 μM compound. Here is the method: The CETP inhibitory activity of the compounds was determined using a commercially available kit from Amersham Biosciences (Catalog #TRKQ7005).
For the measurement of inhibitory activity in human plasma, a modified protocol (Connolly, D. T. et al., Biochemistry, 39 13870-13879, 2000) was used. Briefly, 80 μl of human plasma (obtained from normal volunteers), approximately 25 μg/ml (200) of [^3H]CE-HDL (Amersham Biosciences from kit TRKQ7005) and 1 μl of compound dissolved in DMSO was incubated for at least 4 hrs at 37° C. and non-specific transfer was determined by incubating a corresponding plate at 4° C. (blank). After the incubation period, 100 of a solution of 1% Dextralip 50/0.5M MgCl2, pH 7.4 was added, vortexed and incubated at room temperature for 10 min. The plate was then centrifuged for 30 min at 10° C. at 3000 rpm in a Sorvall RT6000B centrifuge. Fifty microliters of the supernatant was transferred to a Picoplate (Packard) containing 100 μl of Microscint 40 (Perkin Elmer) and mixed for 30 min using a plate mixer. The radioactivity was counted using a TopCount (Perkin Elmer) and the % control was determined in the samples using the following formula: % transfer relative to vehicle controls (% control)=[cpm blank-cpm test]/cpm blank/cpm control]×100. IC50s were calculated from plots of the % control versus compound concentration.
A variety of example compounds have been made and tested, with a range of in vitro results. Below, in Table 2, are representative compounds and the corresponding data; in some cases, where multiple IC50's are shown, multiple measurements were taken. Naturally, different compounds in Formula (I), (Ia), (Ib) and (Ic) may have not activities identical to any one compound below.

Where “and” joins values, the source holds several entries; their conditions need not be identical. Equal values may be shown once.

Broadly, the IC50 is the concentration needed to halve the response being measured. A higher IC50 goes with weaker potency. On to `OC(CN1c2cccc(-c3cccc(OC(F)(F)F)c3)c2OCC1c1cccc(OC(F)(F)C(F)F)c1)C(F)(F)F` (single isomer, unassigned) [Compound 1, 1,1,1-Trifluoro-3-[3-[3-(1,1,2,2-tetrafluoro-ethoxy)-phenyl]-8-(3-trifluoromethoxy-phenyl)-2,3-dihydro-benzo[1,4]oxazin-4-yl]-propan-2-ol], for which the “% Inhibition @ 1 μM” value worked out at 96%; the IC50 is 52 nM and 38 nM.

Regarding `OC(CN1c2cccc(-c3cccc(OC(F)(F)F)c3)c2OCC1c1cccc(OC(F)(F)C(F)F)c1)C(F)(F)F` (single isomer, unassigned) [Compound 2, 1,1,1-Trifluoro-3-[3-[3-(1,1,2,2-tetrafluoro-ethoxy)-phenyl]-8-(3-trifluoromethoxy-phenyl)-2,3-dihydro-benzo[1,4]oxazin-4-yl]-propan-2-ol], the “% Inhibition @ 1 μM” value came out at 73%; the concentration for half-maximal inhibition (IC50) is 276 nM and 131 nM.

On to `OC(CN1c2cccc(-c3cc(F)cc(F)c3)c2OCC1c1cccc(OC(F)(F)C(F)F)c1)C(F)(F)F` (single isomer, unassigned) [Compound 64, 3-{8-(3,5-Difluoro-phenyl)-3-[3-(1,1,2,2-tetrafluoro-ethoxy)-phenyl]-2,3-dihydro-benzo[1,4]oxazin-4-yl}-1,1,1-trifluoro-propan-2-ol], for which the “% Inhibition @ 1 μM” value was 121% and 101% and 119%; the IC50 was 100 nM and 117 nM.

As to `OC(CN1c2cccc(-c3cc(F)cc(F)c3)c2OCC1c1cccc(OC(F)(F)C(F)F)c1)C(F)(F)F` (single isomer, unassigned) [Compound 65, 3-{8-(3,5-Difluoro-phenyl)-3-[3-(1,1,2,2-tetrafluoro-ethoxy)-phenyl]-2,3-dihydro-benzo[1,4]oxazin-4-yl}-1,1,1-trifluoro-propan-2-ol], the “% Inhibition @ 1 μM” value was 86% and 76%; inhibition was half-maximal at 990 nM (IC50).

On to `OC(CN1c2cccc(-c3cccc(F)c3)c2OCC1c1cccc(OC(F)(F)C(F)F)c1)C(F)(F)F` (single isomer, unassigned) [Compound 66, 1,1,1-Trifluoro-3-{8-(3-fluoro-phenyl)-3-[3-(1,1,2,2-tetrafluoro-ethoxy)-phenyl]-2,3-dihydro-benzo[1,4]oxazin-4-yl}-propan-2-ol], for which the “% Inhibition @ 1 μM” value is 104% and 79% and 107%.

With `OC(CN1c2cccc(-c3cccc(F)c3)c2OCC1c1cccc(OC(F)(F)C(F)F)c1)C(F)(F)F` (single isomer, unassigned) [Compound 67, 1,1,1-Trifluoro-3-{8-(3-fluoro-phenyl)-3-[3-(1,1,2,2-tetrafluoro-ethoxy)-phenyl]-2,3-dihydro-benzo[1,4]oxazin-4-yl}-propan-2-ol], the “% Inhibition @ 1 μM” value is 97% and 83%; the IC50 stood at 780 nM.

For orientation: inhibition means the percentage by which the read-out fell short of the control. Low readings indicate a response near the control, high ones a response far below the control. The compound `OC(CF)CN1c2cccc(-c3cccc(OC(F)(F)F)c3)c2OC[C@@H]1c1cccc(OC(F)(F)C(F)F)c1` (stereo in doubt) [Compound 74, 4H-1,4-Benzoxazine-4-ethanol, 2,3-dihydro-α-fluoromethyl-3-[3-(1,1,2,2-tetrafluoroethoxy)phenyl]-8-[3-(trifluoromethoxy)phenyl]-, (3S,αR)—] showed an inhibition at 1 µM of 77% and a concentration for half-maximal inhibition (IC50) of 14 nM.

For `OC(CF)CN1c2cccc(-c3cccc(OC(F)(F)F)c3)c2OC[C@@H]1c1cccc(OC(F)(F)C(F)F)c1` (stereo in doubt) [Compound 75, 4H-1,4-Benzoxazine-4-ethanol, 2,3-dihydro-α-fluoromethyl-3-[3-(1,1,2,2-tetrafluoroethoxy)phenyl]-8-[3-(trifluoromethoxy)phenyl]-, (3S,αS)—], the inhibition at 1 µM came out at 55% and the IC50 worked out at 147 nM.

For the compound `O[C@H](CN1c2cccc(-c3cccc(OC(F)(F)F)c3)c2OC[C@@H]1c1cccc(OC(F)(F)C(F)F)c1)C(F)(F)F` [Compound 4, 4H-1,4-Benzoxazine-4-ethanol, 2,3-dihydro-3-[3-(1,1,2,2-tetrafluoroethoxy)phenyl]-8-[3-(trifluoromethoxy)phenyl]-α-(trifluoromethyl)-, (3S,αR)—], the inhibition at 1 µM was found to be 26%.

`O[C@H](CN1c2cccc(-c3cccc(OC(F)(F)F)c3)c2OC[C@H]1c1cccc(OC(F)(F)C(F)F)c1)C(F)(F)F` [Compound 5, 4H-1,4-Benzoxazine-4-ethanol, 2,3-dihydro-3-[3-(1,1,2,2-tetrafluoroethoxy)phenyl]-8-[3-(trifluoromethoxy)phenyl]-α-(trifluoromethyl)-, (3R,αR)—] returned an inhibition at 1 µM of 23%.

The compound `O[C@@H](CN1c2cccc(-c3cccc(OC(F)(F)F)c3)c2OC[C@H]1c1cccc(OC(F)(F)C(F)F)c1)C(F)(F)F` [Compound 6, 4H-1,4-Benzoxazine-4-ethanol, 2,3-dihydro-3-[3-(1,1,2,2-tetrafluoroethoxy)phenyl]-8-[3-(trifluoromethoxy)phenyl]-α-(trifluoromethyl)-, (3R,αS)—] returned an inhibition at 1 µM of 14%.

For the compound `OC(CN1c2cccc(-c3cccc(OC(F)(F)F)c3)c2OCC1c1cccc(OC(F)(F)F)c1)C(F)(F)F` (stereo not shown) [Compound 7, 3-[3,8-Bis-(3-trifluoromethoxy-phenyl)-2,3-dihydro-benzo[1,4]oxazin-4-yl]-1,1,1-trifluoro-propan-2-ol], the “% Inhibition @ 1 μM” value was 64% and 66%; the IC50 is 104 nM and 110 nM.

Regarding `OC(CN1c2cccc(-c3cccc(OC(F)(F)F)c3)c2OCC1c1cccc(OC(F)(F)F)c1)C(F)(F)F` (stereo not shown) [Compound 8, 3-[3,8-Bis-(3-trifluoromethoxy-phenyl)-2,3-dihydro-benzo[1,4]oxazin-4-yl]-1,1,1-trifluoro-propan-2-ol], the “% Inhibition @ 1 μM” value amounted to 21%.

For the compound `O[C@@H](CN1c2cccc(-c3cccc(OC(F)(F)F)c3)c2OC[C@@H]1c1cccc(OC(F)(F)F)c1)C(F)(F)F` [Compound 9, 4H-1,4-Benzoxazine-4-ethanol, 2,3-dihydro-3,8-bis[3-(trifluoromethoxy)phenyl]-α-(trifluoromethyl)-, (3S,αS)—], testing at 1 µM gave an inhibition of 68%; the “% Inhibition @ 1 μM” value was 72% and 67%; the IC50 is 71 nM and 195 nM.

Compound `O[C@H](CN1c2cccc(-c3cccc(OC(F)(F)F)c3)c2OC[C@@H]1c1cccc(OC(F)(F)F)c1)C(F)(F)F` [Compound 10, 4H-1,4-Benzoxazine-4-ethanol, 2,3-dihydro-3,8-bis[3-(trifluoromethoxy)phenyl]-α-(trifluoromethyl)-, (3S,αR)—] returned an inhibition at 1 µM of 23%.

As for `OC(CN1c2cccc(-c3cccc(OC(F)(F)F)c3)c2OCC1c1ccc2c(c1)OC(F)(F)O2)C(F)(F)F` (stereo not shown) [Compound 13, 3-[3-(2,2-Difluoro-benzo[1,3]dioxol-5-yl)-8-(3-trifluoromethoxy-phenyl)-2,3-dihydro-benzo[1,4]oxazin-4-yl]-1,1,1-trifluoro-propan-2-ol], the inhibition at 1 µM was found to be 48%; the IC50 was 104 nM and 437 nM.

`OC(CN1c2cccc(-c3cccc(OC(F)(F)F)c3)c2OCC1c1cccc(SC(F)(F)F)c1)C(F)(F)F` (stereo not shown) [Compound 15]: the “% Inhibition @ 1 μM” value is 67% and 69%; half-maximal inhibition (IC50) required 360 nM.

For the compound `OC(CN1c2cccc(-c3cccc(OC(F)(F)F)c3)c2OCC1c1cccc(SC(F)(F)F)c1)C(F)(F)F` (stereo not shown) [Compound 16, 1,1,1-Trifluoro-3-[8-(3-trifluoromethoxy-phenyl)-3-(3-trifluoromethylsulfanyl-phenyl)-2,3-dihydro-benzo[1,4]oxazin-4-yl]-propan-2-ol], the “% Inhibition @ 1 μM” value was 20%.

For `CCOc1cccc(C2COc3c(-c4cccc(OC(F)(F)F)c4)cccc3N2CC(O)C(F)(F)F)c1` (stereo not shown) [Compound 17, 3-[3-(3-Ethoxy-phenyl)-8-(3-trifluoromethoxy-phenyl)-2,3-dihydro-benzo[1,4]oxazin-4-yl]-1,1,1-trifluoro-propan-2-ol], the “% Inhibition @ 1 μM” value is 55% and 56%; the IC50 stood at 490 nM.

As for `CCOc1cccc(C2COc3c(-c4cccc(OC(F)(F)F)c4)cccc3N2CC(O)C(F)(F)F)c1` (stereo not shown) [Compound 18], the “% Inhibition @ 1 μM” value came out at 8%.

For `O=C(CN1c2cccc(-c3cccc(OC(F)(F)F)c3)c2OCC1c1ccc2c(c1)OC(F)(F)O2)C(F)(F)F` (stereo not shown) [Compound 19, 3-[3-(2,2-Difluoro-benzo[1,3]dioxol-5-yl)-8-(3-trifluoromethoxy-phenyl)-2,3-dihydro-benzo[1,4]oxazin-4-yl]-1,1,1-trifluoro-propan-2-one], the inhibition at 1 µM is 0%.

The record behind these values is patent US8012963B2, “3,4-dihydro-2H-benzo[1,4]oxazine and thiazine derivatives as CETP inhibitors” (Janssen Pharmaceutica N.V., priority 2006, dated 2011).
